Assay results reported in ChEMBL document CHEMBL5647694, “Novel orally bioavailable EZH1/2 dual inhibitors with greater antitumor efficacy than an EZH2 selective inhibitor” (Cancer Sci, 2017).

Columns and labels:
[1] = target: Protein kinase C delta type (Homo sapiens) (UniProt Q05655); experiment: Inhibition of N-terminal GST-fused human full length PKC-delta (1 to 676 residues ) expressed in baculovirus expression system using PKC peptide as substrate at 1 uM in presence of ATP by Mobility shift assay
[2] = target: Ephrin type-A receptor 8 (Homo sapiens) (UniProt P29322); experiment: Inhibition of N-terminal GST-fused human EPHA8 catalytic domain (571 to 924 residues) expressed in baculovirus-infected Sf21 cells using Blk/Lyntide as substrate at 1 uM in presence of ATP by Mobility shift assay
[3] = target: Serine/threonine-protein kinase Sgk3 (Homo sapiens) (UniProt Q96BR1); experiment: Inhibition of N-terminal GST-fused truncated human SGK3 (119 to 496 residues) expressed in baculovirus expression system using SGKtide as substrate at 1 uM in presence of ATP by Mobility shift assay
[4] = target: Serine/threonine-protein kinase BRSK2 (Homo sapiens) (UniProt Q8IWQ3); experiment: Inhibition of N-terminal GST-tagged full length human BRSK2 (1 to 674 residues) expressed in baculovirus-infected Sf21 cells using CHKtide as substrate at 1 uM in presence of ATP by Mobility shift assay
[5] = target: Macrophage colony-stimulating factor 1 receptor (Homo sapiens) (UniProt P07333); experiment: Inhibition of N-terminal GST-fused human FMS cytoplasmic domain (538 to 972 residues) expressed in baculovirus-infected Sf21 cells using Srctide as substrate at 1 uM in presence of ATP by Mobility shift assay
[6] = target: RAC-alpha serine/threonine-protein kinase (Homo sapiens) (UniProt P31749); experiment: Inhibition of N-terminal GST-tagged human AKT1 catalytic domain (104 to 480 residues) co-expressed with His-tagged PDK1 (1 to 556 residues) in baculovirus-infected Sf21 cells using Crosstide as substrate at 1 uM in presence of ATP by Mobility shift assay
[7] = target: Mitogen-activated protein kinase 9 (Homo sapiens) (UniProt P45984); experiment: Inhibition of N-terminal GST-fused human JNK2 catalytic domain (1 to 364 residues) expressed in Escherichia coli expression system using Modified ERKtide as substrate at 1 uM in presence of ATP by Mobility shift assay
[8] = target: Serine/threonine-protein kinase PLK3 (Homo sapiens) (UniProt Q9H4B4); experiment: Inhibition of N-terminal GST-fused human PLK3 catalytic domain (58 to 340 residues) expressed in baculovirus expression system using CDC25ctide as substrate at 1 uM in presence of ATP by Mobility shift assay
[9] = target: Serine/threonine-protein kinase pim-1 (Homo sapiens) (UniProt P11309); experiment: Inhibition of N-terminal His-tagged full length human PIM1 (1 to 313 residues) expressed in baculovirus expression system using S6K2 peptide as substrate at 1 uM in presence of ATP by Mobility shift assay
[10] = target: Hepatocyte growth factor receptor (Homo sapiens) (UniProt P08581); experiment: Inhibition of N-terminal GST-tagged human MET cytoplasmic domain (956 to 1390 residues ) expressed in baculovirus-infected Sf21 cells using Srctide as substrate at 1 uM in presence of ATP by Mobility shift assay
[11] = target: Serine/threonine-protein kinase Chk2 (Homo sapiens) (UniProt O96017); experiment: Inhibition of N-terminal GST-fused full length human CHK2 (1 to 543 residues) expressed in baculovirus expression system using CHKtide as substrate at 1 uM in presence of ATP by Mobility shift assay
[12] = target: Dual specificity tyrosine-phosphorylation-regulated kinase 2 (Homo sapiens) (UniProt Q92630); experiment: Inhibition of N-terminal GST-fused full length human DYRK2 (1 to 528 residues) expressed in baculovirus expression system using DYRKtide-F as substrate at 1 uM in presence of ATP by Mobility shift assay
[13] = target: Protein kinase C gamma type (Homo sapiens) (UniProt P05129); experiment: Inhibition of N-terminal GST-fused human full length PKC-gamma(1 to 697 residues ) expressed in baculovirus expression system using PKC peptide as substrate at 1 uM in presence of ATP by Mobility shift assay
[14] = target: RAC-gamma serine/threonine-protein kinase (Homo sapiens) (UniProt Q9Y243); experiment: Inhibition of N-terminal GST-tagged human AKT3 catalytic domain (108 to 479 residues) co-expressed with His-tagged PDK1 (1 to 556 residues) in baculovirus-infected Sf21 cells using Crosstide as substrate at 1 uM in presence of ATP by Mobility shift assay
[15] = target: Lymphokine-activated killer T-cell-originated protein kinase (Homo sapiens) (UniProt Q96KB5); experiment: Inhibition of N-terminal GST-fused full length human PBK (1 to 322 residues) expressed in baculovirus expression system using Histone H3 peptide as substrate at 1 uM in presence of ATP by Mobility shift assay
[16] = target: Tyrosine-protein kinase ITK/TSK (Homo sapiens) (UniProt Q08881); experiment: Inhibition of N-terminal GST-fused full length human ITK (2 to 620 residues) expressed in baculovirus-infected Sf21 cells using Srctide as substrate at 1 uM in presence of ATP by Mobility shift assay
[17] = target: Cytoplasmic tyrosine-protein kinase BMX (Homo sapiens) (UniProt P51813); experiment: Inhibition of N-terminal GST-fused full length human BMX ( 1 to 675 residues) expressed in baculovirus-infected Sf21 cells using Srctide as substrate at 1 uM in presence of ATP by Mobility shift assay
[18] = target: Serine/threonine-protein kinase pim-2 (Homo sapiens) (UniProt Q9P1W9); experiment: Inhibition of N-terminal GST-tagged full length human PIM2 (1 to 311 residues) expressed in baculovirus expression system using S6K2 peptide as substrate at 1 uM in presence of ATP by Mobility shift assay
[19] = target: Calcium/calmodulin-dependent protein kinase type II subunit gamma (Homo sapiens) (UniProt Q13555); experiment: Inhibition of N-terminal GST-tagged full length human CAMK2g (1 to 518 residues) expressed in baculovirus-infected Sf21 cells using GS peptide as substrate at 1 uM in presence of ATP by Mobility shift assay
[20] = target: Casein kinase I isoform gamma-2 (Homo sapiens) (UniProt P78368); experiment: Inhibition of N-terminal GST-fused full length human CK1gamma2 (1 to 415 residues) expressed in baculovirus expression system using CKtide as substrate at 1 uM in presence of ATP by Mobility shift assay
[21] = target: Epithelial discoidin domain-containing receptor 1 (Homo sapiens) (UniProt Q08345); experiment: Inhibition of N-terminal GST-fused human DDR1 cytoplasmic domain (444 to 876 residues) expressed in baculovirus-infected Sf21 cells using IRS1 as substrate at 1 uM in presence of ATP by Mobility shift assay
[22] = target: Tyrosine-protein kinase Srms (Homo sapiens) (UniProt Q9H3Y6); experiment: Inhibition of N-terminal GST-tagged human SRM catalytic domain (215 to 488 residues) expressed in baculovirus-infected Sf21 cells using Blk/Lyntide as substrate at 1 uM in presence of ATP by Mobility shift assay

Work on `Cc1cc(C)c(CNC(=O)c2cc(Br)c3c(c2C)O[C@@](C)([C@H]2CC[C@H](N(C)C)CC2)O3)c(=O)[nH]1` yielded an inhibition [1] of 1.5%, an inhibition [2] of -7% and an inhibition [3] of -4.5%. The inhibition [4] was 6.6%, the inhibition [5] was -0.4% and the inhibition [6] was -2.9%. For the same compound, the inhibition [7] was -4%, the inhibition [8] was -1.3% and the inhibition [9] was 1.3%. For the same compound, the inhibition [10] was -2.1%, the inhibition [11] was 0.7% and the inhibition [12] was -2.3%. The inhibition [13] was 0%, the inhibition [14] was -6.2% and the inhibition [15] was -2.5%. For the same compound, the inhibition [16] was -5.6%, the inhibition [17] was -2.2% and the inhibition [18] was -3.9%. It also gave an inhibition [19] of -4.8%, an inhibition [20] of -2.8% and an inhibition [21] of -3.3%. For the same compound, the inhibition [22] was -0.1%.

`Cc1cc(C)c(CNC(=O)c2cc(Cl)c3c(c2C)O[C@@](C)([C@H]2CC[C@H](N(C)C)CC2)O3)c(=O)[nH]1` [VALEMETOSTAT] gave an inhibition [1] of 2.7%, an inhibition [2] of -5.3% and an inhibition [3] of 0.3%. The inhibition [4] was 11.2%, the inhibition [5] was 1.3% and the inhibition [6] was -2.9%. The inhibition [7] was -5%, the inhibition [8] was -7.8% and the inhibition [9] was 17.1%. It also gave an inhibition [10] of -5%, an inhibition [11] of -2.2% and an inhibition [12] of 6%. It also gave an inhibition [13] of 1%, an inhibition [14] of -5.3% and an inhibition [15] of -3.4%. It also gave an inhibition [16] of -5.8%, an inhibition [17] of -3.1% and an inhibition [18] of -1.4%. It also gave an inhibition [19] of -5.4%, an inhibition [20] of -5.8% and an inhibition [21] of -3.7%. The inhibition [22] was 0.6%.
